Results reported in ChEMBL document CHEMBL4715724, “Novel 5-substituted-2-anilinoquinolines with 3-(morpholino or 4-methylpiperazin-1-yl)propoxy moiety as broad spectrum antiproliferative agents: Synthesis, cell based assays and kinase screening” (Bioorg Med Chem Lett, 2016).

Columns and labels:
[1] = tested on: HOP-92; assay: cells; assay type: functional; conditions: Homo sapiens, time 48 hrs
Description: Growth inhibition of human HOP-92 cells incubated for 48 hrs by sulforhodamine B assay

[2] = tested on: HOP-62; assay: cells; assay type: functional; conditions: Homo sapiens, time 48 hrs
Description: Growth inhibition of human HOP-62 cells incubated for 48 hrs by sulforhodamine B assay

[3] = tested on: MCF7; assay: cells; assay type: functional; conditions: Homo sapiens, time 48 hrs
Description: Growth inhibition of human MCF7 cells incubated for 48 hrs by sulforhodamine B assay

[4] = tested on: SNB-75; assay: cells; assay type: functional; conditions: Homo sapiens, time 48 hrs
Description: Growth inhibition of human SNB-75 cells incubated for 48 hrs by sulforhodamine B assay

[5] = tested on: CCRF-CEM; assay: cells; assay type: functional; conditions: Homo sapiens, time 48 hrs
Description: Growth inhibition of human CCRF-CEM cells incubated for 48 hrs by sulforhodamine B assay

[6] = tested on: NCI-H460; assay: cells; assay type: functional; conditions: Homo sapiens, time 48 hrs
Description: Growth inhibition of human NCI-H460 cells incubated for 48 hrs by sulforhodamine B assay

[7] = tested on: NCI-H23; assay: cells; assay type: functional; conditions: Homo sapiens, time 48 hrs
Description: Growth inhibition of human NCI-H23 cells incubated for 48 hrs by sulforhodamine B assay

[8] = tested on: IGROV-1; assay: cells; assay type: functional; conditions: Homo sapiens, time 48 hrs
Description: Growth inhibition of human IGROV-1 cells incubated for 48 hrs by sulforhodamine B assay

[9] = tested on: RXF 393; assay: cells; assay type: functional; conditions: Homo sapiens, time 48 hrs
Description: Growth inhibition of human RXF 393 cells incubated for 48 hrs by sulforhodamine B assay

[10] = tested on: OVCAR-4; assay: cells; assay type: functional; conditions: Homo sapiens, time 48 hrs
Description: Growth inhibition of human OVCAR-4 cells incubated for 48 hrs by sulforhodamine B assay

[11] = Cytotoxicity against human HFF-1 cells assessed as cell growth inhibition at 0.1 uM by MTT assay relative to control; assay type: cell-based; conditions: read-out: GI
[12] = tested on: Panel CNS (Carcinoma cell lines); assay: cells; assay type: functional; conditions: Homo sapiens, time 48 hrs; for CC50: read-out: LC50 (the source's name)
Description: Growth inhibition of human Panel CNS (Carcinoma cell lines) incubated for 48 hrs by sulforhodamine B assay

[13] = tested on: UO-31; assay: cells; assay type: functional; conditions: Homo sapiens, time 48 hrs
Description: Growth inhibition of human UO-31 cells incubated for 48 hrs by sulforhodamine B assay

[14] = tested on: MDA-MB-468; assay: cells; assay type: functional; conditions: Homo sapiens, time 48 hrs
Description: Growth inhibition of human MDA-MB-468 cells incubated for 48 hrs by sulforhodamine B assay

[15] = tested on: Panel NCI-60 (60 carcinoma cell lines); assay: cells; assay type: functional; conditions: Homo sapiens, time 48 hrs; for CC50: read-out: LC50 (the source's name)
Description: Growth inhibition of human Panel NCI-60 (60 carcinoma cell lines) incubated for 48 hrs by sulforhodamine B assay

[16] = tested on: OVCAR-8; assay: cells; assay type: functional; conditions: Homo sapiens, time 48 hrs
Description: Growth inhibition of human OVCAR-8 cells incubated for 48 hrs by sulforhodamine B assay

[17] = tested on: HCT-15; assay: cells; assay type: functional; conditions: Homo sapiens, time 48 hrs
Description: Growth inhibition of human HCT-15 cells incubated for 48 hrs by sulforhodamine B assay

[18] = tested on: A549; assay: cells; assay type: functional; conditions: Homo sapiens, time 48 hrs
Description: Growth inhibition of human A549/ATCC cells incubated for 48 hrs by sulforhodamine B assay

[19] = tested on: Panel breast (Carcinoma cell lines); assay: cells; assay type: functional; conditions: Homo sapiens, time 48 hrs; for CC50: read-out: LC50 (the source's name)
Description: Growth inhibition of human Panel breast (Carcinoma cell lines) incubated for 48 hrs by sulforhodamine B assay

[20] = tested on: U-251; assay: cells; assay type: functional; conditions: Homo sapiens, time 48 hrs
Description: Growth inhibition of human U-251 cells incubated for 48 hrs by sulforhodamine B assay

[21] = tested on: Panel renal (Carcinoma cell lines); assay: cells; assay type: functional; conditions: Homo sapiens, time 48 hrs
Description: Growth inhibition of human Panel renal (Carcinoma cell lines) incubated for 48 hrs by sulforhodamine B assay

[22] = tested on: NCI-H226; assay: cells; assay type: functional; conditions: Homo sapiens, time 48 hrs
Description: Growth inhibition of human NCI-H226 cells incubated for 48 hrs by sulforhodamine B assay

[23] = tested on: NCI-H522; assay: cells; assay type: functional; conditions: Homo sapiens, time 48 hrs
Description: Growth inhibition of human NCI-H522 cells incubated for 48 hrs by sulforhodamine B assay

[24] = tested on: NCI-H322M; assay: cells; assay type: functional; conditions: Homo sapiens, time 48 hrs
Description: Growth inhibition of human NCI-H322M cells incubated for 48 hrs by sulforhodamine B assay

[25] = Cytotoxicity against human HFF-1 cells assessed as cell growth inhibition at 1 uM by MTT assay relative to control; assay type: cell-based; conditions: read-out: GI
[26] = tested on: SR; assay: cells; assay type: functional; conditions: Homo sapiens, time 48 hrs
Description: Growth inhibition of human SR cells incubated for 48 hrs by sulforhodamine B assay

[27] = tested on: SK-MEL-28; assay: Growth inhibition of human SK-MEL-28 cells assessed as growth percentage at 10 uM measured after 48 hrs by sulforhodamine B assay relative to control; assay type: functional; conditions: read-out: Activity
[28] = tested on: Panel leukemia (Carcinoma cell lines); assay: cells; assay type: functional; conditions: Homo sapiens, time 48 hrs
Description: Growth inhibition of human Panel leukemia (Carcinoma cell lines) incubated for 48 hrs by sulforhodamine B assay

[29] = tested on: K562; assay: cells; assay type: functional; conditions: Homo sapiens, time 48 hrs
Description: Growth inhibition of human K562 cells incubated for 48 hrs by sulforhodamine B assay

[30] = tested on: Panel prostate (Carcinoma cell lines); assay: cells; assay type: functional; conditions: Homo sapiens, time 48 hrs
Description: Growth inhibition of human Panel prostate (Carcinoma cell lines) incubated for 48 hrs by sulforhodamine B assay

[31] = cells; assay type: functional; conditions: Homo sapiens, Non-small cell lung cancer cell line; time 48 hrs
Description: Growth inhibition of human Non-small cell lung cancer cell line incubated for 48 hrs by sulforhodamine B assay

[32] = tested on: A498; assay: cells; assay type: functional; conditions: Homo sapiens, time 48 hrs
Description: Growth inhibition of human A498 cells incubated for 48 hrs by sulforhodamine B assay

[33] = Cytotoxicity against human HFF-1 cells assessed as cell growth inhibition by MTT assay; assay type: cell-based
[34] = tested on: TK-10; assay: cells; assay type: functional; conditions: Homo sapiens, time 48 hrs
Description: Growth inhibition of human TK-10 cells incubated for 48 hrs by sulforhodamine B assay

[35] = tested on: LOX IMVI; assay: cells; assay type: functional; conditions: Homo sapiens, time 48 hrs
Description: Growth inhibition of human LOX IMVI cells incubated for 48 hrs by sulforhodamine B assay

[36] = tested on: UACC-62; assay: cells; assay type: functional; conditions: Homo sapiens, time 48 hrs
Description: Growth inhibition of human UACC-62 cells incubated for 48 hrs by sulforhodamine B assay

[37] = Cytotoxicity against human HFF-1 cells assessed as cell growth inhibition at 10 uM by MTT assay relative to control; assay type: cell-based; conditions: read-out: GI
[38] = tested on: HT-29; assay: cells; assay type: functional; conditions: Homo sapiens, time 48 hrs
Description: Growth inhibition of human HT-29 cells incubated for 48 hrs by sulforhodamine B assay

[39] = tested on: PC-3; assay: cells; assay type: functional; conditions: Homo sapiens, time 48 hrs
Description: Growth inhibition of human PC-3 cells incubated for 48 hrs by sulforhodamine B assay

[40] = tested on: Panel melanoma (Carcinoma cell lines); assay: cells; assay type: functional; conditions: Homo sapiens, time 48 hrs
Description: Growth inhibition of human Panel melanoma (Carcinoma cell lines) incubated for 48 hrs by sulforhodamine B assay

[41] = tested on: SF-295; assay: cells; assay type: functional; conditions: Homo sapiens, time 48 hrs
Description: Growth inhibition of human SF-295 cells incubated for 48 hrs by sulforhodamine B assay

[42] = tested on: OVCAR-3; assay: cells; assay type: functional; conditions: Homo sapiens, time 48 hrs
Description: Growth inhibition of human OVCAR-3 cells incubated for 48 hrs by sulforhodamine B assay

[43] = tested on: Panel colon (Carcinoma cell lines); assay: cells; assay type: functional; conditions: Homo sapiens, time 48 hrs; for CC50: read-out: LC50 (the source's name)
Description: Growth inhibition of human Panel colon (Carcinoma cell lines) incubated for 48 hrs by sulforhodamine B assay

[44] = tested on: KM12; assay: cells; assay type: functional; conditions: Homo sapiens, time 48 hrs
Description: Growth inhibition of human KM12 cells incubated for 48 hrs by sulforhodamine B assay

[45] = tested on: Panel ovarian (Carcinoma cell lines); assay: cells; assay type: functional; conditions: Homo sapiens, time 48 hrs
Description: Growth inhibition of human Panel ovarian (Carcinoma cell lines) incubated for 48 hrs by sulforhodamine B assay

[46] = tested on: Hs-578T; assay: cells; assay type: functional; conditions: Homo sapiens, time 48 hrs
Description: Growth inhibition of human Hs-578T cells incubated for 48 hrs by sulforhodamine B assay

[47] = tested on: HCT-116; assay: cells; assay type: functional; conditions: Homo sapiens, time 48 hrs
Description: Growth inhibition of human HCT-116 cells incubated for 48 hrs by sulforhodamine B assay

[48] = tested on: SK-MEL-28; assay: cells; assay type: functional; conditions: Homo sapiens, time 48 hrs
Description: Growth inhibition of human SK-MEL-28 cells incubated for 48 hrs by sulforhodamine B assay

[49] = tested on: UACC-257; assay: cells; assay type: functional; conditions: Homo sapiens, time 48 hrs
Description: Growth inhibition of human UACC-257 cells incubated for 48 hrs by sulforhodamine B assay

[50] = tested on: MDA-MB-231; assay: cells; assay type: functional; conditions: Homo sapiens, time 48 hrs
Description: Growth inhibition of human MDA-MB-231/ATCC cells incubated for 48 hrs by sulforhodamine B assay

[51] = tested on: SK-MEL-5; assay: Growth inhibition of human SK-MEL-5 cells assessed as growth percentage at 10 uM measured after 48 hrs by sulforhodamine B assay relative to control; assay type: functional; conditions: read-out: Activity

## CN1CCN(CCCOc2cccc3nc(Nc4cccc(Cl)c4)ccc23)CC1
[1]
  GI50: 1650 nM
[2]
  GI50: 1720 nM
[3]
  GI50: 1570 nM
[4]
  GI50: 1380 nM
[5]
  GI50: 1680 nM
[6]
  GI50: 1870 nM
[7]
  GI50: 2.27 µM
[8]
  GI50: 2.23 µM
[9]
  GI50: 1850 nM
[10]
  GI50: 1.94 µM
[11]
  inhibition at 0.1 µM: 5.4%
[12]
  GI50: 1890 nM
  TGI: 4 µM
  CC50: 23.3 µM
[13]
  GI50: 1.84 µM
[14]
  GI50: 1610 nM
[15]
  GI50: 1910 nM
  TGI: 4.17 µM
  CC50: 10.7 µM
[16]
  GI50: 1.9 µM
[17]
  GI50: 1580 nM
[18]
  GI50: 2020 nM
[19]
  GI50: 1850 nM
  TGI: 6.69 µM
  CC50: 20.8 µM
[20]
  GI50: 1890 nM
[21]
  GI50: 1.9 µM
  LC50 (lethal concentration 50%): 17.4 µM
  TGI: 5.37 µM
[22]
  GI50: 1.62 µM
[23]
  GI50: 1480 nM
[24]
  GI50: 2.67 µM
[25]
  inhibition at 1 µM: 12.2%
[26]
  GI50: 2200 nM
[27]
  growth at 10 µM: 35.5%
[28]
  GI50: 1990 nM
  LC50 (50% lethal concentration): 38 µM
  TGI: 4.65 µM
[29]
  GI50: 1790 nM
[30]
  GI50: 1900 nM
  LC50 (concentration killing 50% of cells): 7.02 µM
  TGI: 3.65 µM
[31]
  GI50: 3.73 µM
  LC50 (50% lethal concentration): 23.9 µM
  TGI: 8.65 µM
[32]
  GI50: 1.88 µM
[33]
  GI50: > 10 µM
[34]
  GI50: 1670 nM
[35]
  GI50: 1680 nM
[36]
  GI50: 1910 nM
[37]
  inhibition at 10 µM: 22.4%
[38]
  GI50: 1500 nM
[39]
  GI50: 1810 nM
[40]
  GI50: 1760 nM
  LC50: 6.45 µM
  TGI: 3.37 µM
[41]
  GI50: 1.91 µM
[42]
  GI50: 1.45 µM
[43]
  GI50: 1640 nM
  TGI: 3.1 µM
  CC50: 5.87 µM
[44]
  GI50: 1780 nM
[45]
  GI50: 2.01 µM
  LC50: 11.5 µM
  TGI: 4.31 µM
[46]
  GI50: 1.83 µM
[47]
  GI50: 1550 nM
[48]
  GI50: 1650 nM
[49]
  GI50: 1810 nM

## CN1CCN(CCCOc2cccc3nc(Nc4ccc(F)c(F)c4)ccc23)CC1
[1]
  GI50: 1430 nM
[2]
  GI50: 1250 nM
[3]
  GI50: 3330 nM
[4]
  GI50: 3920 nM
[5]
  GI50: 2420 nM
[6]
  GI50: 2370 nM
[7]
  GI50: 4.67 µM
[50]
  GI50: 937 nM
[8]
  GI50: 5.55 µM
[9]
  GI50: 2110 nM
[10]
  GI50: 6.42 µM
[12]
  GI50: 4100 nM
  TGI: 9.09 µM
  CC50: 16.1 µM
[13]
  GI50: 4.34 µM
[14]
  GI50: 2110 nM
[15]
  GI50: 2630 nM
  TGI: 6.76 µM
  CC50: 16.2 µM
[16]
  GI50: 5.13 µM
[17]
  GI50: 960 nM
[18]
  GI50: 3500 nM
[19]
  GI50: 3140 nM
  TGI: 7.98 µM
  CC50: 20.3 µM
[51]
  growth at 10 µM: -26.8%
[20]
  GI50: 2680 nM
[21]
  GI50: 4.16 µM
  LC50 (lethal concentration 50%): 18.9 µM
  TGI: 8.98 µM
[22]
  GI50: 5.51 µM
[23]
  GI50: 1010 nM
[24]
  GI50: 3.93 µM
[26]
  GI50: 870 nM
[28]
  GI50: 2600 nM
  LC50 (50% lethal concentration): 21.1 µM
  TGI: 7.09 µM
[29]
  GI50: 660 nM
[30]
  GI50: 4070 nM
  LC50 (concentration killing 50% of cells): 18 µM
  TGI: 8.55 µM
[31]
  GI50: 3.17 µM
  LC50 (50% lethal concentration): 18.9 µM
  TGI: 7.79 µM
[32]
  GI50: 5.66 µM
[34]
  GI50: 2630 nM
[35]
  GI50: 1030 nM
[36]
  GI50: 700 nM
[38]
  GI50: 620 nM
[39]
  GI50: 3830 nM
[40]
  GI50: 1690 nM
  LC50: 10.5 µM
  TGI: 4.4 µM
[41]
  GI50: 4.64 µM
[42]
  GI50: 4.58 µM
[43]
  GI50: 2110 nM
  TGI: 5.9 µM
  CC50: 12.2 µM
[44]
  GI50: 2350 nM
[45]
  GI50: 5.13 µM
  LC50: 20.5 µM
  TGI: 10.8 µM
[46]
  GI50: 4.73 µM
[47]
  GI50: 3800 nM
[48]
  GI50: 1080 nM
[49]
  GI50: 660 nM
